Experimental findings from patent publication US7078059B2, “Treatment of bone diseases” (Shire Holdings AG, priority 2000, dated 2006) are described below.

Assay [1] has as its system osteoclast precursors in mouse bone marrow. The conditions noted are these: LA number = ng/ml lanthanum; for Relative TRAP 5b activities, Mean ± SD: relative to mean of baseline group, with 1,25-dihydroxyvitamin D3, 6 days. An excerpt:
A method known as mouse bone marrow culture system is the one most widely used to study osteoclast differentiation. Originally, this method was developed by Takahashi et al. (1988a). Osteoclast precursors in mouse bone marrow can be induced to form multinucleated osteoclast-like cells (MNC) in the presence of either an active metabolite of vitamin D3 (1,25(OH)2D3) or parathyroid hormone (PTH). […] They form pits on bone or dentine slices (Takahashi et al. 1988a, Hattersley and Chambers 1989, Shinar et al. 1990); they express high levels of tartrate-resistant acid phosphatase (TRAP) and calcitonin receptors (Takahashi et al. 1988b, Shinar et al. 1990); and they respond to calcitonin (Takahashi et al. 1988a) and prostaglandin E2 (Collins and Chambers 1992). Thus, the method is an ideal one with which to study both stimulators and inhibitors of osteoclast differentiation.
In the original culture system, the osteoclast formation was determined after an 8-day culture. In bone marrow, both non-adherent osteoclast precursors and stromal cells are present, the latter of which are needed to support osteoclast formation. The number of osteoclasts formed is generally determined by counting the number of TRAP-positive MNC containing at least three nuclei (Takahashi et al. 1988a).
We have modified the original assay so that we culture 1×10^6 mouse marrow cells/ml for 6 days. […] Instead of counting of the number of differentiated osteoclasts formed, we measured the amount of TRAP liberated from osteoclasts into the culture medium using a fast, simple TRAP immunoassay (Halleen et al. 1999) presentation in the Annual Meeting of the American Society for Bone and Mineral Research, Sep. 30-Oct. 4, 1999, in St. Louis, Mo., USA.
8-10-week old mice were killed with CO2. Tibia and femora were dissected free from adhering soft tissues. The bone ends were cut off with a scalpel and the marrow was flushed with α-Minimal Essential Medium (α-MEM, Gibco BRL, Paisley, UK) supplemented with 100 IU/ml penicillin and 100 μg/ml streptomycin. A 10 ml syringe with a 27 gauge needle was used for flushing. Cells were centrifuged at 600×G for 10 minutes and the cell pellet was resuspended in -MEM containing 10% fetal calf serum. Cells were allowed to attach to plastic for 2 h at 37° C. in a 5% CO2 incubator to allow removal of monocytes and macrophages. Nonadherent cells were duly removed, and the […] bone marrow cells were cultured in 24-well plates (1×10^6 cells/well=1 ml) for 6 days. Half of the media were changed at day 3 and the treatments replaced. At the end of the culture, the plates were fixed with 2% paraformaldehyde in PBS for 20 minutes. Osteoclast formation was determined by measuring TRAP activity from the culture media using the novel TRAP immunoassay (vide infra), where we use a polyclonal TRAP antiserum prepared in rabbits against purified human bone TRAP. The TRAP antibody was bound to anti-rabbit IgG coated microtiter wells (Gibco BRL, Paisley, UK), and medium TRAP was then bound to the antibody. The activity of bound TRAP was measured in sodium acetate buffer using pNPP as substrate.
In this study, the effect of the lanthanum (III) ion on osteoclast differentiation in the presence of 1,25-dihydroxyvitamin D3 was tested. The following sample groups were included: • Baseline (including vehicle) • Control (Baseline without 1,25-dihydroxyvitamin D3) • Baseline+100 ng/ml lanthanum • Baseline+500 ng/ml lanthanum • Baseline+1000 ng/ml lanthanum • Baseline+5000 ng/ml lanthanum • Baseline+15000 ng/ml lanthanum
Six replicates were included in each group, and the test was performed twice. Baseline without 1,25-dihydroxyvitamin D3 was used as a control to show the test system allows inhibition of osteoclast differentiation to be detected.

Assay [2] has as its system osteoclasts cultured on bone slices. Briefly: In vitro bone resorption assay (osteoclasts on bovine bone slices, CrossLaps). It counts as cell-based, rat. The text has this: The method of osteoclast culture on bone slices was originally described by Boyde et al. (1984) and by Chambers et al. (1984). For cell culture, we used a method slightly modified from the original methods (Lakkakorpi et al. 1989, Lakkakorpi and Väänänen, 1991). The rate of bone resorption in the cultures was originally determined by counting the number of resorption pits on each bone or dentine slice using a microscope with phase contrast objectives (Sundquist et al. 1990). Later, the pits were visualized using Wheat Germ Agglutinin lectin that specifically binds to the resorbed area in bone (Selander et al. 1994), making it possible to quantify the total resorbed area using a microscope and computer-assisted image analysis system (Laitala and Väänänen 1994, Hentunen et al. 1995). We used a commercially available method (CrossLaps for cultures, Osteometer Biotech, Herlev, Denmark) to detect the amount of collagen cross-links released into the culture medium as an index of the bone resorption rate (Bagger et al., 1999).
The study protocol uses a method where osteoclasts are cultured on bone slices and allowed to resorb bone. The system is ideal for determining the effect of drug candidates on the bone resorbing activity of osteoclasts. Drug candidates are added into the cell cultures at the beginning of the culture period, and the osteoclasts allowed to resorb bone for 3 days. The amount of bone resorbed during the culture period is determined and compared to the amount of bone resorbed in control cultures (those cultured in the absence of drug candidates).
Transverse 0.1 mm thick slices of cortical bone were cut from the diaphysis of fresh bovine femurs (Atria Slaughterhouse, Oulu, Finland) using a low-speed diamond saw, cleaned by ultrasonication in multiple changes of sterile distilled water, and stored at 4° C. before use. Long bones were removed from 1-day-old rat pups killed by decapitation. […] The resulting suspension of dispersed cells and bone fragments was agitated using a plastic pipette. Larger fragments were allowed to sediment for a few seconds and the supernatant was seeded onto the bone slices pre-wetted in the medium. After a settling period of 30 minutes at 37° C., the bone slices were washed by dipping in fresh medium, and then transferred to wells in 24-well culture dishes containing osteoclast culture medium. The bone slices were incubated in a humidified atmosphere of 95% air and 5% carbon dioxide at 37° C. for 72 hours.
After the culture period, the amount of bone resorption was determined by measuring the amount of collagen cross-links released into the culture medium using a commercial kit (CrossLaps for cultures, Osteometer Biotech) according to the manufacturer s instructions. The number of osteoclasts in each culture was determined by microscopic counting of the amount of TRAP-positive multinuclear cells, and the results are given as the number of collagen cross-links released per one osteoclast.
In the bone resorption assay, the amount of medium CrossLaps (nM) released into the culture medium was determined and the number of osteoclasts in the corresponding cultures calculated. The medium CrossLaps amounts were divided with the osteoclast numbers in the corresponding cultures, and the results are given on Table 1 as relative medium CrossLaps amounts per osteoclasts. The relative values were obtained by dividing each individual value with the mean value of the baseline group.

Where [3] appears, read: second bone resorption assay, relative to mean of baseline group, 72 hours, LA number = ng/ml lanthanum, Control = Baseline+10 nM bafilomycin Al.

Where “and” joins values, the source holds several entries; their conditions need not be identical. Equal entries are not always repeated. Where two headings read alike, the source gives them in different places.

With `O.O.O.O.O=C([O-])[O-].O=C([O-])[O-].O=C([O-])[O-].[La+3].[La+3]` [LA 15000, lanthanum carbonate tetrahydrate], the “Relative TRAP 5b activities, Mean ± SD” value in assay [1] (first osteoclast differentiation assay) is reported as 0.36 ± 0.27(*). Moreover, in assay [1] (second osteoclast differentiation assay), the “Relative TRAP 5b activities, Mean ± SD” value is 0.25 ± 0.07(***). For the same molecule, the “Combined results on osteoclast differentiation (relative TRAP 5b activity), Mean ± SD” value in assay [1] (tables 4-6 combined, number 18 (LA 100) or 12) was 0.30 ± 0.19 (***). In addition, in assay [2] (LA number = ng/ml lanthanum, lanthanum (III) ion = any of the concentrations tested (100-15000 ng/ml), bafilomycin Al 10 nM), the “Effect on bone resorption / bone resorbing activity of mature osteoclasts, in words” value is recorded as “slight decrease”. In addition, in assay [2] (first bone resorption assay, relative to mean of baseline group, 72 hours, LA number = ng/ml lanthanum in culture medium, Control = Baseline+10 nM bafilomycin Al), the “Relative medium CrossLaps amounts per osteoclast, replicates 1-6” value was 0.57 (2×) and 0.58 and 0.96 and 2.53 and 1.11. In addition, the “Relative medium CrossLaps amounts per osteoclast, Mean ± SD” value in assay [2] (first bone resorption assay, relative to mean of baseline group, 72 hours, LA number = ng/ml lanthanum, Control = Baseline+10 nM bafilomycin Al) was found to be 1.05 ± 0.76. Besides, in assay [2] (setting [3]), the “Relative medium CrossLaps amounts per osteoclasts, Mean ± SD” value is given as 0.63 ± 0.29; the “Relative medium CrossLaps amounts per osteoclasts, replicates 1-6” value was 0.29 and 1.08 and 0.62 and 0.87 and 0.47 and 0.45. The “Combined results on bone resorption (relative medium CrossLaps per osteoclast), Mean ± SD” value in assay [2] (tables 1 and 2 combined, number 12, LA number = ng/ml lanthanum, Control = Baseline+10 nM bafilomycin Al) was 0.84 ± 0.59.
